Assay results: patent US8536354B2, “Steroidal ligands and their use in gene switch modulation” (Intrexon Corporation, priority 2008, dated 2013)
≈ marks a conversion by molar mass, not a printed value. Where “and” joins values, the source holds several entries; their conditions need not be identical. Equal entries are not always repeated. Where two headings read alike, the source gives them in different places.

Experiments:
[1] = physchem; conditions: 25 °C, water, thermodynamic from solid
Procedure: (§1) Each shake flask was agitated for 60 minutes at room temperature, then allowed to stand for 1 hour at room temperature. […] Absorbance was compared to that of a reference standard at the same absorbance maximum for a 1-2% solution of the same steroid in CH3OH, allowing for up to 10 nM maxima shift due to solvent effect.

[2] = in human; cited from earlier work
[3] = tested on: D. melanogaster BII cell line (expresses the ecdysteroid receptor complex EcR-USP); assay: Drosophila melanogaster BII cell line bioassay (turbidometric; agonist and antagonist versions); conditions: Drosophila melanogaster, read-out: EC50 (M), BII bioassay results
[4] = molecular target: T1, wild-type Choristoneura fumiferana EcR (CfEcR-DEF) (Choristoneura fumiferana, UniProt O77255); assay: Two-hybrid gene switch assay, wild-type CfEcR-DEF (GAL4-EcR / VP16-RXR-USP chimera, luciferase) in NIH3T3 cells
T1 sequence (O77255 219-541): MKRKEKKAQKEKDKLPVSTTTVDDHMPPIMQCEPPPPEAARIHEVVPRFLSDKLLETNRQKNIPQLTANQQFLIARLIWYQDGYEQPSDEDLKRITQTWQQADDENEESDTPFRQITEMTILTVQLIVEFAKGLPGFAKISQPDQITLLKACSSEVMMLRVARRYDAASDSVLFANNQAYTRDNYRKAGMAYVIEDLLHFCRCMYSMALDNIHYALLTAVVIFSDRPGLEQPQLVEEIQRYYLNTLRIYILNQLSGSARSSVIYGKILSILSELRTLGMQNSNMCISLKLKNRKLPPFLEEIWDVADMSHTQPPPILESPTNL
T1 sequence (P28702 299-449 partner): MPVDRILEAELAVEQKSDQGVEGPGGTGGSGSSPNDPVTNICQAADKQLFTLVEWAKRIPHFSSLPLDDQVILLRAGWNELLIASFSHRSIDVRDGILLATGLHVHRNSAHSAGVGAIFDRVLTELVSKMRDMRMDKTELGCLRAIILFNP

[5] = Log D measurement (shake flask, pH 7.4 buffer / octanol); assay type: physicochemical; conditions: octanol/pH 7.4 buffer (shake flask), pH 7.4 buffer / water-saturated octanol, read-out: Experimental logD
Procedure: as §1

[6] = Caco II permeability assay; conditions: human, Caco-2, pH 7.4
[7] = Plasma protein binding assay (dialysis); assay type: in vitro ADME; conditions: both sexes; human plasma vs PBS pH 7.4, ca. 24 hours at 37° C.
[8] = tested on: EcRs (lepidopteran and non-lepidopteran); assay: Two-hybrid gene switch assays, statements across the set of ten EcRs in NIH3T3 cells
[9] = molecular target: T2, wild-type Aedes aegypti EcR (AaEcR-DEF) (Aedes aegypti, UniProt P49880); assay: Two-hybrid gene switch assay, AaEcR-DEF in NIH3T3 cells
T2 sequence (P49880 405-776 limits assumed): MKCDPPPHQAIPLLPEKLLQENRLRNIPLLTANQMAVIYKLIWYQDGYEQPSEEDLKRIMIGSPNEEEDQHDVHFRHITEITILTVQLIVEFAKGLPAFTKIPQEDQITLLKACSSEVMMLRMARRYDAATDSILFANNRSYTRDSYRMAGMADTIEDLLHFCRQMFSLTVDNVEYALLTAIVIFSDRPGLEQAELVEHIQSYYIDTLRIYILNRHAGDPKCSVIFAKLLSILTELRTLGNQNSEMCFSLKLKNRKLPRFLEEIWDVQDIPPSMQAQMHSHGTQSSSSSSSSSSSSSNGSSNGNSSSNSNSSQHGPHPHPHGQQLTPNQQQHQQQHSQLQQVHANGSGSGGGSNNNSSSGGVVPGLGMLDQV

[10] = molecular target: T3, wild-type Drosophila melanogaster EcR (DmEcR-DEF) (Drosophila melanogaster, UniProt P34021); assay: Two-hybrid gene switch assay, DmEcR-DEF in NIH3T3 cells; conditions: EC50, DmEcR gene switch, NIH3T3, Example One
T3 sequence (P34021 342-878 limits assumed): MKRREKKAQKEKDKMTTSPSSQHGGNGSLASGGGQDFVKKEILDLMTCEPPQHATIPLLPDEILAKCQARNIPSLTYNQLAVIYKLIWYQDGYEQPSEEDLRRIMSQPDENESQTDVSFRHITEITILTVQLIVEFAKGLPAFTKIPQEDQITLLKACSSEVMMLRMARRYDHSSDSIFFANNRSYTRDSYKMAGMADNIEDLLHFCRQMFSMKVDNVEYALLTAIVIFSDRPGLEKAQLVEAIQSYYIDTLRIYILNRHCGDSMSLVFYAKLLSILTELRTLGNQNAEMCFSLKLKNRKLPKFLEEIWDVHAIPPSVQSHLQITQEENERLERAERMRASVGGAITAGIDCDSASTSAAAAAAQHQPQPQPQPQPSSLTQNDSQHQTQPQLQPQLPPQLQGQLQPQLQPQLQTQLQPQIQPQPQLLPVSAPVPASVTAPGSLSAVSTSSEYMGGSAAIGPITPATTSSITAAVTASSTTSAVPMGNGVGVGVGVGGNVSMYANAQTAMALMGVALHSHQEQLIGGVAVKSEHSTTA

[11] = molecular target: T4, Bombyx mori EcR (BmEcR) (Bombyx mori, UniProt P49881); assay: Two-hybrid gene switch assay, BmEcR in NIH3T3 cells
T4 sequence (P49881 352-589 limits assumed): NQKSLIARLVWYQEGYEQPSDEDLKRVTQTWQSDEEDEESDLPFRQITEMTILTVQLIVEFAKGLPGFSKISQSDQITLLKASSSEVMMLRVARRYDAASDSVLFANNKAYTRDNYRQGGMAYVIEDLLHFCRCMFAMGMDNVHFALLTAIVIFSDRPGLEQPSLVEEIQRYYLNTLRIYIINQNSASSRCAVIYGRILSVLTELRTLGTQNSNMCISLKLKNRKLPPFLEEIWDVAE

[12] = molecular target: VgEcR/RXR (Drosophila melanogaster, UniProt P34021, E282G/G283S/G286V)
VgEcR/RXR, sequence (P34021 whole entry E282G/G283S/G286V): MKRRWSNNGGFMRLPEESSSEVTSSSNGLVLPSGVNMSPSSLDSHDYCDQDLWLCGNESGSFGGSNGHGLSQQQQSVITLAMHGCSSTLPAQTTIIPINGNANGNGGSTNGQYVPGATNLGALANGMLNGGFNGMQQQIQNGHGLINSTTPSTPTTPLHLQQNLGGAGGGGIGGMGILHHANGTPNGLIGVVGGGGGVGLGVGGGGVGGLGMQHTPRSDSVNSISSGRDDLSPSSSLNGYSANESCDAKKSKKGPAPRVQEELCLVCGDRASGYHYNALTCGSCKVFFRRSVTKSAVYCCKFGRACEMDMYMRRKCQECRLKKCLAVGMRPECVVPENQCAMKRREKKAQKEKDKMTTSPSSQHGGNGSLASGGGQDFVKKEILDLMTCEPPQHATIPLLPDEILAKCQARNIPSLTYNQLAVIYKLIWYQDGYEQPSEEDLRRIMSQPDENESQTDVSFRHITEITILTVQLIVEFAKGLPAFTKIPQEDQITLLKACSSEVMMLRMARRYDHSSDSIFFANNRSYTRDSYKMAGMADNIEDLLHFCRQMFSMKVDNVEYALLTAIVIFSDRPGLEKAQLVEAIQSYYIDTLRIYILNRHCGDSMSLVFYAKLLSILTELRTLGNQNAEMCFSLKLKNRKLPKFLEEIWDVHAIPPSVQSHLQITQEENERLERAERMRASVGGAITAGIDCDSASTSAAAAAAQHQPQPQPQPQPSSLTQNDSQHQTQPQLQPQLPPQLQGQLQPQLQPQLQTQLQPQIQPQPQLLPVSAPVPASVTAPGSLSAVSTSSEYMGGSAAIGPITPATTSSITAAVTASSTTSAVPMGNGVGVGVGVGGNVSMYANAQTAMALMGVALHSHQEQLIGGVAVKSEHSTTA
VgEcR/RXR, sequence (P19793 whole entry, further chain): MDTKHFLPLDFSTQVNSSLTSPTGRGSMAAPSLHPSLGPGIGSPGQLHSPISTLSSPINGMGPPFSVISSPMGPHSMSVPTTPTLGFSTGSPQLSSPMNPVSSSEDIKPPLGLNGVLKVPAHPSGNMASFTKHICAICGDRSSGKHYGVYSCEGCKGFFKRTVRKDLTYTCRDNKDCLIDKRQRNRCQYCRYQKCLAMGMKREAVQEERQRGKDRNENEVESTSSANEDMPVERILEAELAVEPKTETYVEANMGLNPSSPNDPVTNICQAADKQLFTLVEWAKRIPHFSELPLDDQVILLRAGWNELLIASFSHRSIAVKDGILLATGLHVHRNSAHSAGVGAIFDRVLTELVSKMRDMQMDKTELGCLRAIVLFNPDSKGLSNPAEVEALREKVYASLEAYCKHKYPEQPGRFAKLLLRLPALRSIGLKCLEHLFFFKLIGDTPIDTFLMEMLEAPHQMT

[13] = Water solubility measurement (saturated solutions, 25° C., UV absorbance); conditions: 25 °C, thermodynamic from solid
Procedure: as §1

[14] = tested on: Nephotettix cincticeps EcR (NcEcR-DEF); assay: Two-hybrid gene switch assay, NcEcR-DEF in NIH3T3 cells; conditions: Example Two

CC(C)(O)CCC(O)C(C)(O)C1CCC2(O)C3=CC(=O)C4CC(O)C(O)CC4(C)C3CCC12C (centres unmarked) [20E, 20-hydroxyecdysone]
solubility [1]: 6700 µg/mL (≈ 13.9 mM)
estimated half-life [2]: 9 h
EC50 [3]: 7.6e-09 M
EC50 [4]: > 33000 nM
activity in wt-CfEcR assay ([4]; Example One): essentially inactive
response toward CfEcR ([4]; Example Two): virtually no response
logD [5]: 0.01
Papp A→B at 120 min [6]: 0.11 ×10⁻⁶ cm/s
Papp B→A at 120 min [6]: 0.39 ×10⁻⁶ cm/s
efflux ratio at 120 min [6]: 3.5
fraction unbound [7]: 0.908

CC(C)CC[C@@H](O)[C@](C)(O)[C@H]1CC[C@@]2(O)C3=CC(=O)[C@@H]4C[C@@H](O)[C@@H](O)C[C@]4(C)[C@H]3CC[C@]12C [PoA, ponasterone A]
activity across the tested set of EcRs ([8]; FIGS. 13 and 14): active
potency ([8]; all EcRs tested): submicromolar potency
EC50 ([8]; read-out: potency (EC50), Nc, Aa, and Ama EcRs): 0.3 to 2 nM
EC50 ([9]; EC50, AaEcR gene switch, NIH3T3, Example One): 1.1 nM
potency as activator of AaEcR ([9]; Example Two): single digit nM
fold induction at 1 µM ([9]; NIH3T3, read-out: FI (fold induction)): 166
RLUs (absolute expression of the reporter gene) ([9]; [AaEcR]): ~1046
EC50 [3]: 2.6e-10 M
EC50 [4]: 190 nM
RMFI (relative maximum fold induction, relative to diacylhydrazine 30) ([4]; wt-CfEcR gene switch, NIH3T3, Example One): ~0.18 and ~0.2
logD [5]: 1.95
EC50 [10]: ~66 nM
EC50 [11]: 110 nM
RMFI ([11]; BmEcR, Example Two): 0.98
EC50 ([12]; EC50, VgEcR/RXR switch in 3T3 cells): 641 nM
EC50 ([12]; EC50, VgEcR/RXR system): 641 nM
RMFI ([12]; VgEcR/RXR system): 1.5
solubility [13]: 180 µg/mL (≈ 0.387 mM)
Papp A→B at 120 min [6]: 2.26 ×10⁻⁶ cm/s
Papp B→A at 120 min [6]: 13.9 ×10⁻⁶ cm/s
efflux ratio at 120 min [6]: 6.2
fraction unbound [7]: 0.426
EC50 [14]: 0.3 nM
RMFI [14]: 1
